Measurements taken from article PMC2912408 (Biochemistry, 2010).

molecular target: T1, rat I7 olfactory receptor (OR-I7) (Rattus norvegicus, UniProt P23270); type: cell-based
T1 sequence (P23270 1-327): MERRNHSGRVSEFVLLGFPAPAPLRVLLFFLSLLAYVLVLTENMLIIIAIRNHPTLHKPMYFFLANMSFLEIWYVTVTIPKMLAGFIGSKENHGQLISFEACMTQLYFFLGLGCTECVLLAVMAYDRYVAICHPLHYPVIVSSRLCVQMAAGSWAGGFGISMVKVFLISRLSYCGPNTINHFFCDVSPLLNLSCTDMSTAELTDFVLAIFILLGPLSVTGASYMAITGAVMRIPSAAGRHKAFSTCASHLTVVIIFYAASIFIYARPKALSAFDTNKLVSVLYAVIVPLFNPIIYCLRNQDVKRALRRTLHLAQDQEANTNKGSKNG

| EC50 [µM] | Structure (SMILES) |
| --- | --- |
| 16 ± 1.7 | CCCCCCCCCC=O [decanal] |
| 4.4 ± 0.4 | CCCCCCCCC=O [nonanal] |
| 446 ± 16 | CCCCCCCCCCC=O [undecanal] |
